Reference: the supplement of paper PMC10307832

How the values were obtained:
Experiment in all cases: relative viability (nuclei count vs DMSO), 5 days (fraction); higher = more cells survive
[1] = compound: CS(=O)(=O)c1ccc(-c2cnc(N)c(C(=O)Nc3ccccc3)n2)cc1 [VE-821] + CS(=O)(=O)CCNCc1ccc(-c2ccc3ncnc(Nc4ccc(OCc5cccc(F)c5)c(Cl)c4)c3c2)o1 [Lapatinib] (partner 2 µM)
Summary of the method: (§1)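 Five library-drug doses in √10 steps were combined with a fixed anchor-drug dose, or a single drug was given alone, by pin tool to lung cancer cell lines in 1536-well plates the day after seeding. Nuclei were stained and counted after 5 days. Relative viability is the nuclei count in treated wells over that in vehicle wells, taken as the median of duplicate plates.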

[2] = compound: N#CC[C@H](C1CCCC1)n1cc(-c2ncnc3[nH]ccc23)cn1 [Ruxolitinib] + CS(=O)(=O)N1CCN(Cc2cc3nc(-c4cccc5[nH]ncc45)nc(N4CCOCC4)c3s2)CC1 [Pictilisib] (partner 1 µM)
Summary of the method: as §1

[3] = compound: CS(=O)(=O)c1ccc(-c2cnc(N)c(C(=O)Nc3ccccc3)n2)cc1 [VE-821] + CCNC(=O)c1noc(-c2cc(C(C)C)c(O)cc2O)c1-c1ccc(CN2CCOCC2)cc1 [Luminespib] (partner 0.01 µM)
Summary of the method: as §1

[4] = compound: CS(=O)(=O)c1ccc(-c2cnc(N)c(C(=O)Nc3ccccc3)n2)cc1 [VE-821] + NC(=O)Nc1cc(-c2cccc(F)c2)sc1C(=O)N[C@H]1CCCNC1 [AZD7762] (partner 0.2 µM)
Summary of the method: as §1

Cell Line | relative viability ([1]; first compound 0.08 µM) | relative viability ([1]; first compound 0.253 µM) | relative viability ([1]; first compound 2.53 µM) | relative viability ([1]; first compound 8 µM) | relative viability ([2]; first compound 0.253 µM) | relative viability ([2]; first compound 0.8 µM) | relative viability ([2]; first compound 2.53 µM) | relative viability ([2]; first compound 8 µM) | relative viability ([3]; first compound 0.08 µM) | relative viability ([3]; first compound 0.253 µM) | relative viability ([3]; first compound 0.8 µM) | relative viability ([3]; first compound 2.53 µM) | relative viability ([3]; first compound 8 µM) | relative viability ([4]; first compound 0.08 µM) | relative viability ([4]; first compound 0.253 µM) | relative viability ([4]; first compound 0.8 µM) | relative viability ([4]; first compound 2.53 µM) | relative viability ([4]; first compound 8 µM) | relative viability ([1]; first compound 0.8 µM) | relative viability ([2]; first compound 0.08 µM)
NCI-H520 | 0.874 | 0.845 | 0.789 | 0.519 | 0.258 | 0.236 | 0.251 | 0.34 | 0.218 | 0.24 | 0.191 | 0.276 | 0.227 | – | – | – | – | – | – | –
NCI-H1355 | 1.06 | 1.05 | 1.07 | 0.627 | 0.391 | 0.386 | 0.329 | 0.352 | 0.71 | 0.665 | 0.643 | 0.597 | 0.409 | 0.773 | 0.621 | 0.499 | 0.539 | 0.195 | 0.834 | 0.385
NCI-H1563 | 0.92 | 0.981 | 0.912 | 0.792 | 0.669 | 0.691 | 0.623 | 0.661 | 0.56 | 0.499 | 0.491 | 0.509 | 0.338 | – | – | – | – | – | 0.812 | 0.653
NCI-H1651 | 0.93 | 0.815 | 1.04 | 0.74 | 0.599 | 0.727 | 0.477 | 0.664 | 0.907 | 0.819 | 0.63 | 1.16 | 0.679 | 0.457 | 0.386 | 0.4 | 0.463 | 0.366 | 0.785 | 0.742
HCC-44 | 1.04 | 1.07 | 1.09 | 1.08 | 0.649 | 0.686 | 0.463 | 0.307 | 1.34 | 0.97 | 0.908 | 1.14 | 0.807 | 0.94 | 0.944 | 1.07 | 0.964 | 0.914 | 1.07 | 0.594
NCI-H1437 | 0.816 | 0.71 | 0.871 | 0.614 | 0.351 | 0.43 | 0.429 | 0.397 | 1.19 | 1.15 | 1.06 | 1.19 | 0.878 | 1.13 | 1.12 | 0.956 | 1.11 | 0.514 | 0.763 | 0.533
201T | 1.1 | 0.937 | 1.01 | 0.976 | 0.687 | 0.75 | 0.826 | 0.8 | 1.06 | 1.03 | 1.06 | 1.06 | 0.934 | 0.67 | 0.578 | 0.585 | 0.648 | 0.46 | 0.966 | 0.745
LCLC-103H | – | – | – | – | 0.597 | 0.592 | 0.524 | 0.597 | 1.1 | 0.925 | 0.898 | 0.947 | 0.718 | 0.829 | 0.758 | 0.705 | 0.758 | 0.632 | – | 0.58
NCI-H1915 | 1 | 0.999 | 1.04 | 0.88 | 0.925 | 0.952 | 0.803 | 0.835 | 0.816 | 0.752 | 0.698 | 0.726 | 0.525 | 0.7 | 0.618 | 0.594 | 0.537 | 0.321 | 0.994 | 0.894
NCI-H2085 | 0.8 | 0.758 | 0.815 | 0.563 | 0.469 | 0.419 | 0.463 | 0.611 | 0.439 | 0.457 | 0.385 | 0.411 | 0.309 | 0.952 | 0.843 | 0.366 | – | 0.271 | 0.507 | 0.564
NCI-H2228 | 1.18 | 1.23 | 1.04 | 0.37 | 0.362 | 0.365 | 0.255 | 0.246 | 0.125 | 0.165 | 0.131 | 0.132 | 0.0911 | – | – | – | – | – | 1.14 | 0.584
EKVX | 0.209 | 0.196 | 0.242 | 0.186 | 0.385 | 0.451 | 0.44 | 0.521 | 0.96 | 0.77 | 0.763 | 0.939 | 0.815 | 0.754 | 0.638 | 0.696 | 0.744 | 0.424 | 0.219 | 0.323
COR-L23 | 1.09 | 0.827 | 1.12 | 0.94 | 0.748 | 0.795 | 0.625 | 0.531 | 0.835 | 0.651 | 0.633 | 0.342 | 0.446 | – | – | – | – | – | 1.01 | 0.755
SK-MES-1 | 0.483 | 0.467 | 0.446 | 0.397 | 0.337 | 0.359 | 0.394 | 0.335 | 1.09 | 0.797 | 0.746 | 0.537 | 0.306 | – | – | – | – | – | 0.437 | 0.268
A549 | 1.14 | 0.849 | 0.829 | 0.475 | 0.529 | 0.576 | 0.407 | 0.233 | – | – | – | – | – | – | – | – | – | – | 0.929 | 0.579
